Series [1] deals with BXPC-3. The series can be described thus: Antiproliferative activity against human BXPC-3 cells assessed as inhibition of cell proliferation incubated for 6 days by CCK8 assay. The series is classed as functional, cell-based. To be noted: time 6.0 day.
The target of series [2] is T1, Histone-lysine N-methyltransferase EZH2 (Homo sapiens, UniProt Q15910). The series can be described thus: Inhibition of EZH2 in human BX-PC-3 cells assessed as decrease in H3K27me3 level at 5 uM by fluorescence based analysis. The series is classed as cell-based. To be noted: BXPC-3.
Series [3] deals with MDA-MB-231. The series can be described thus: Induction of apoptosis in human MDA-MB-231 cells assessed as necrotic cells at 1 uM incubated for 48 hrs by Annexin V-FITC/PI staining based flow cytometric analysis (reference value: 0.63%). The class given is functional. (In flow cytometry, cells or beads pass a laser one at a time.)
The test system of series [4] is MDA-MB-231. Kind of series: Induction of cell cycle arrest in human MDA-MB-231 cells assessed as accumulation of cells at G0/G1 phase at 1 to 5 uM incubated for 48 hrs by flow cytometric analysis. The class given is functional, cell-based. To be noted: dose 1-5 µM.
The nature of series [5]: Half-life in ICR mouse at 60 mg/kg, ip measured upto 24 hrs by LC-MS/MS analysis. The series is classed as ADME, organism-based. The settings on record: in vivo.
Series [6] deals with BXPC-3. Kind of series: Induction of apoptosis in human BXPC-3 cells assessed as viable cells at 2.5 uM incubated for 48 hrs by Annexin V-FITC/PI staining based flow cytometric analysis (reference value: 90.70%). The series is classed as functional. The settings on record: read-out: Activity.
Series [7] has as its system BXPC-3. Kind of series: Induction of apoptosis in human BXPC-3 cells assessed as viable cells at 1 uM incubated for 48 hrs by Annexin V-FITC/PI staining based flow cytometric analysis (reference value: 90.70%). The series is classed as functional. To be noted: read-out: Activity.
The subject of series [8] is MDA-MB-231. The series can be described thus: Induction of apoptosis in human MDA-MB-231 cells assessed as necrotic cells at 2.5 uM incubated for 48 hrs by Annexin V-FITC/PI staining based flow cytometric analysis (reference value: 0.63%). The class given is functional.
The subject of series [9] is BXPC-3. Kind of series: Induction of cell cycle arrest in human BXPC-3 cells assessed as accumulation of cells at G0/G1 phase at 1 to 5 uM incubated for 48 hrs by flow cytometric analysis. The settings on record: dose 1-5 µM. The class given is functional, cell-based.
Series [10] deals with BXPC-3. The series can be described thus: Induction of apoptosis in human BXPC-3 cells assessed as late apoptotic cells at 1 uM incubated for 48 hrs by Annexin V-FITC/PI staining based flow cytometric analysis (reference value: 4.38 %). The class given is functional.
Series [11] concerns MDA-MB-231. Kind of series: Induction of apoptosis in human MDA-MB-231 cells assessed as late apoptotic cells at 2.5 uM incubated for 48 hrs by Annexin V-FITC/PI staining based flow cytometric analysis (reference value: 1.06%). The series is classed as functional.
Series [12] relates to MDA-MB-231. The series can be described thus: Induction of apoptosis in human MDA-MB-231 cells assessed as early apoptotic cells at 5 uM incubated for 48 hrs by Annexin V-FITC/PI staining based flow cytometric analysis (reference value: 0.69%). The series is classed as functional.
Series [13] relates to BXPC-3. The series can be described thus: Antitumor activity against human BXPC-3 cells xenografted in Balb/c nude mouse assessed as reduction in tumor growth at 60 mg/kg, ip administered daily for 30 days. The series is classed as functional, organism-based. To be noted: time 30.0 day. (In general: A xenograft is tissue or cells of one species grown in another, often human tumour cells in immunodeficient mice.)

The subject of series [14] is BXPC-3. Kind of series: Induction of apoptosis in human BXPC-3 cells assessed as necrotic cells at 2.5 uM incubated for 48 hrs by Annexin V-FITC/PI staining based flow cytometric analysis (reference value: 1.65 %). The series is classed as functional.
The target in series [15] is T1, Histone-lysine N-methyltransferase EZH2. The series can be described thus: Inhibition of EZH2 in human BXPC-3 cells assessed as increase in H3K27ac level at 5 uM by fluorescence based analysis. The series is classed as cell-based.
Series [16] relates to BXPC-3. The series can be described thus: Induction of apoptosis in human BXPC-3 cells assessed as necrotic cells at 5 uM incubated for 48 hrs by Annexin V-FITC/PI staining based flow cytometric analysis (reference value: 1.65 %). The series is classed as functional.
Series [17] deals with T2, Histone-lysine N-methyltransferase EZH1 (Homo sapiens, UniProt Q92800).
T2 sequence (Q92800 whole entry): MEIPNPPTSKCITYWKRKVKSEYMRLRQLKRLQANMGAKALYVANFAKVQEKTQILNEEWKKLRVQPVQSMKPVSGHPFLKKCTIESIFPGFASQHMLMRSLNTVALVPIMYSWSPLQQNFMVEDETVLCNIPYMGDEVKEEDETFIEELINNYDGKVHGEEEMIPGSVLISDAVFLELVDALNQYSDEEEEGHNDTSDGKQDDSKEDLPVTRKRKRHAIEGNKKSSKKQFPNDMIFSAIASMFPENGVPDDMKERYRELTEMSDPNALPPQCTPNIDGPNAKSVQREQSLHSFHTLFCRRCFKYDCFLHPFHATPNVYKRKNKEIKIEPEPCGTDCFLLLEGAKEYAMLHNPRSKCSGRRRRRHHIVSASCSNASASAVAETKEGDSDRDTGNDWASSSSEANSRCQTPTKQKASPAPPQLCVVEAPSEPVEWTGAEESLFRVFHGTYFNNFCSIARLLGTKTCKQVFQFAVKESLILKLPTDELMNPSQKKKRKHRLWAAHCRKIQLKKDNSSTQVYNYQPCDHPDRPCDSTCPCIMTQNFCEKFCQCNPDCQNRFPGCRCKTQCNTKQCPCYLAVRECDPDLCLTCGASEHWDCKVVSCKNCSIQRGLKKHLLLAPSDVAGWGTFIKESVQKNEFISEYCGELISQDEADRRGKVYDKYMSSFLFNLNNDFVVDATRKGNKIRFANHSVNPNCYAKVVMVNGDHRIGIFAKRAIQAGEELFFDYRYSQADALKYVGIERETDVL
The series can be described thus: Inhibition of EZH1 (unknown origin) by radiometric assay.

Series [18] is described as follows: MRT(0 to t) in ICR mouse at 60 mg/kg, ip measured upto 24 hrs by LC-MS/MS analysis. To be noted: in vivo. The series is classed as ADME, organism-based.
For series [19], the target named is Bromodomain-containing protein 3 (Homo sapiens, UniProt Q15059). Kind of series: Inhibition of BRD3-BD1/2 (unknown origin) by HTRF analysis.
Series [20] deals with MDA-MB-231. The series can be described thus: Induction of apoptosis in human MDA-MB-231 cells assessed as late apoptotic cells at 5 uM incubated for 48 hrs by Annexin V-FITC/PI staining based flow cytometric analysis (reference value: 1.06%). The series is classed as functional.
The nature of series [21]: Tmax in ICR mouse at 60 mg/kg, ip measured upto 24 hrs by LC-MS/MS analysis. The class given is ADME, organism-based. The settings on record: in vivo.
For series [22], the system named is BXPC-3. Kind of series: Induction of apoptosis in human BXPC-3 cells assessed as late apoptotic cells at 5 uM incubated for 48 hrs by Annexin V-FITC/PI staining based flow cytometric analysis (reference value: 4.38 %). The series is classed as functional.

Active and inactive are the calls of the source. No cut-off for these calls is given here.

As a reminder, the half-life is how long it takes for the measured level to halve. Usually IC50 stands for the concentration needed to halve the response being measured. The low end stands for greater potency, the high end for weaker potency. One may read the MRT last as a mean duration of stay, worked out from the concentration-time curve. In general, Tmax refers to the time at which the peak concentration occurs.

T1 sequence (Q15910 whole entry, looked up): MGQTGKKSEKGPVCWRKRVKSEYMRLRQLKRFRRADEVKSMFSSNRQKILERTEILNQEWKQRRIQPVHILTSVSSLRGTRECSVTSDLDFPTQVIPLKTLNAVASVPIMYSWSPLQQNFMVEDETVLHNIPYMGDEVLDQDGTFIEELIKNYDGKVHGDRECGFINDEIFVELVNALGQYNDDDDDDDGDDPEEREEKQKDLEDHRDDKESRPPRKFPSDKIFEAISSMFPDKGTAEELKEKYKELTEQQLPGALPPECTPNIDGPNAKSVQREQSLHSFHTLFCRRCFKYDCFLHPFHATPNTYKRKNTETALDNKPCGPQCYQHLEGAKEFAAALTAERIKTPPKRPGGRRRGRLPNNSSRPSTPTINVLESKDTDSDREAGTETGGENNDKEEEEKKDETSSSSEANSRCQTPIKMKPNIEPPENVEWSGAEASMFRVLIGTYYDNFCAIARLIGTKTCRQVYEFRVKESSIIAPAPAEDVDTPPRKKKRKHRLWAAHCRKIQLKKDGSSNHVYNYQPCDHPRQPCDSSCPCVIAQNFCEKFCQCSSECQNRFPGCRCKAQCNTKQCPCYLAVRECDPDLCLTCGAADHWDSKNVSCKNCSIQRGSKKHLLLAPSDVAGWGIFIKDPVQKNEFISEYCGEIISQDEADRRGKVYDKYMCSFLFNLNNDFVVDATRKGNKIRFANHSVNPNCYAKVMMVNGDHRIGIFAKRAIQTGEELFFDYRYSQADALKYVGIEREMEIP
Bromodomain-containing protein 3, sequence (Q15059 whole entry): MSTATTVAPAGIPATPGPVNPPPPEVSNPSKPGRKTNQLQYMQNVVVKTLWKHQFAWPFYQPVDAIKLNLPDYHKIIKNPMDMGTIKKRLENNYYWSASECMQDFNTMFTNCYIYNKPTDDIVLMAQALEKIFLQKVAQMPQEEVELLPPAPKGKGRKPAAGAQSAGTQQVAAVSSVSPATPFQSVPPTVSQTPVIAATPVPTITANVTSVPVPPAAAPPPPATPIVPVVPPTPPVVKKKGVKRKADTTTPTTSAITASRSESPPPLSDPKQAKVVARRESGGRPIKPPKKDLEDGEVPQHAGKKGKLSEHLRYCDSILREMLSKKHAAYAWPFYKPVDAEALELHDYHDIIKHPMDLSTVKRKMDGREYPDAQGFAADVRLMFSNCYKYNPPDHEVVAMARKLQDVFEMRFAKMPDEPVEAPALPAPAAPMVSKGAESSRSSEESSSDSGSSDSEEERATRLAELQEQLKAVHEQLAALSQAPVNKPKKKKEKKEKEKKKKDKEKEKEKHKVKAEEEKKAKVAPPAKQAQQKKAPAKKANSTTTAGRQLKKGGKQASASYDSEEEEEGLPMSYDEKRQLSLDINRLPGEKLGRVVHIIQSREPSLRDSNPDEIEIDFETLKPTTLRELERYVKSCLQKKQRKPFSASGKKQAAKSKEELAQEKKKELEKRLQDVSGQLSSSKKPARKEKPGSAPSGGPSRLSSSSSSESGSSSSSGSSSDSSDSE

Turning to `CCC(C)n1ccc2c(C(=O)NCc3c(C)cc(C)[nH]c3=O)cc(-c3cn(C)c(=O)c4[nH]ccc34)cc21` (configuration not stated), the outcome in the series on BXPC-3 [1], in the series on MDA-MB-231 [4], in the series on BXPC-3 [9] and with BXPC-3 [13] was Active. Also, the inhibition result in [2] and in [15] was “Active” in each case. Moreover, the Activity in the series with MDA-MB-231 [3] is recorded as 0.87%; with MDA-MB-231 [8], 1.38%; in the series with BXPC-3 [10], 7.61%; in the series with MDA-MB-231 [11], 2.29%; with MDA-MB-231 [12], 13.19%; in the series with BXPC-3 [14], 2.86%. Also, the Activity in the series with BXPC-3 [16] stood at 3.35%; in the series on MDA-MB-231 [20] it was 3.82%; in the series on BXPC-3 [22], 23.83%. In series [5], this molecule showed a half-life of 13.6 h. In addition, the viability at 2.5 µM with BXPC-3 [6] came to 71%. Moreover, the viability at 1 µM in the series on BXPC-3 [7] is 82.6%. The figures for the half-maximal inhibitory concentration (IC50) in series [17] and in [19] were 2580 nM and 32 nM, respectively. In series [18], the MRT last at 24 h is 2.55 h. Further, in series [21], the time of peak concentration (Tmax) amounted to 4.98 min.

The record behind these values is ChEMBL document CHEMBL5316343, “Design, Synthesis, and Biological Evaluation of a Potent Dual EZH2-BRD4 Inhibitor for the Treatment of Some Solid Tumors” (J Med Chem, 2023).
